Data published in patent US8883782B2, “Spiro-tetracyclic ring compounds as beta-secretase modulators and methods of use” (Amgen Inc., priority 2010, dated 2014).
Where two headings read alike, the source gives them in different places.

Key:
[1] = target: Beta Secretase enzyme (BACE) (Homo sapiens, UniProt P56817); test: In vitro enzymatic BACE FRET (fluorescence resonance energy transfer) assay; format: biochemical; conditions: average IC50, enzyme assay
Procedure, shortened: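 A peptide bearing a fluorophore and quencher across the cleavage site serves as substrate at 50 nM. Reactions proceed one hour in acidic acetate buffer (0.05 M, pH 4.2) containing 10% DMSO final and 100 uM genapol, then are terminated with Tris and read fluorimetrically.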

[2] = test system: Aβ40 in conditioned medium of cells stably expressing Amyloid Precursor Protein (APP); test: In vitro BACE cell-based assay (Aβ40 in conditioned medium, sandwich ELISA)
Procedure, shortened: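 Step two: 10-point compound titration added, starting 100 μM or 10 μM, 0.1% DMSO. Step three: medium Aβ40 measured by ELISA, capture 3 h and detection 2 h at 4° C, TRF read.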

[3] = Homo sapiens, HEK293, average IC50, HEK cells, read-out: HEK cell assay
[4] = Homo sapiens, HEK293, average IC50, read-out: HEK cell assay

Chain of Beta Secretase enzyme (BACE) (P56817 46-501, species assumed): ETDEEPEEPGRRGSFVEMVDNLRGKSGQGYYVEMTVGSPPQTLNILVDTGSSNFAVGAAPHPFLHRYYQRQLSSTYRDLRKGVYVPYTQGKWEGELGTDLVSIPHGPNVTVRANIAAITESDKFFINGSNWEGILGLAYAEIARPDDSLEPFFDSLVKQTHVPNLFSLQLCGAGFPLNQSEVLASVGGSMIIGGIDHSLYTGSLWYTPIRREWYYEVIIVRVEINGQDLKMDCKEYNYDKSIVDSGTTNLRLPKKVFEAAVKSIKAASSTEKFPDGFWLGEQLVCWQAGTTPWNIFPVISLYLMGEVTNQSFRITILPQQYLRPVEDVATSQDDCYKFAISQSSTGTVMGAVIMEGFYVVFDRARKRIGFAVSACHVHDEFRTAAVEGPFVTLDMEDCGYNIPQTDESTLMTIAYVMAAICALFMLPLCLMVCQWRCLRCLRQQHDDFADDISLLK

IC50 ([1]; read-out: BACE 1 FRET assay) [µM] | IC50 [2, 3] [µM] | IC50 [2, 4] [µM] | Compound | other results
0.0004 | – | – | (4S)-4′-fluoro-7′-(2-fluoro-3-pyridinyl)-2′-((3R)-3-methyl-1-pyrrolidinyl)spiro[1,3-oxazole-4,9′-xanthen]-2-amine, (4S)-4′-fluoro-7′-(2-fluoro-3-pyridinyl)-2′-((3S)-3-methyl-1-pyrrolidinyl)spiro[1,3-oxazole-4,9′-xanthen]-2-amine [Example 1055] | IC50 ([2]; average IC50, read-out: HEK cell assay): 0.033 µM
0.0009 | 0.015 | – | CC1(C#Cc2cnc3c(c2)[C@]2(CSC(N)=N2)c2cc(-c4cncc(F)c4)ccc2O3)COC1 [Example 964, (5S)-7-(5-fluoro-3-pyridinyl)-3-((3-methyl-3-oxetanyl)ethynyl)spiro[chromeno[2,3-b]pyridine-5,4′-[1,3]thiazol]-2′-amine] | –
0.0005 | 0.127 | – | NC1=N[C@@]2(CO1)c1cc(-c3cccc(Cl)c3)ccc1Oc1cnc(-c3ccc(F)c(F)c3)cc12 [Example 550, (5S)-7-(3-chlorophenyl)-3-(3,4-difluorophenyl)spiro[chromeno[2,3-c]pyridine-5,4′-[1,3]oxazol]-2′-amine] | –
0.0006 | – | 0.023 | NC1=N[C@@]2(CO1)c1cc(OCc3cccc(Br)c3)ccc1Oc1ncc(-c3cccnc3)cc12 [Example 979, (5S)-7-((3-bromobenzyl)oxy)-3-(3-pyridinyl)spiro[chromeno[2,3-b]pyridine-5,4′-[1,3]oxazol]-2′-amine] | –
0.0022 | – | 0.0068 | CC1(COc2cc(F)c3c(c2)[C@]2(COC(N)=N2)c2cc(-c4ccc(F)nc4)ccc2O3)COC1 [Example 266, (4S)-4′-fluoro-7′-(6-fluoro-3-pyridinyl)-2′-((3-methyl-3-oxetanyl)methoxy)spiro[1,3-oxazole-4,9′-xanthen]-2-amine] | –
0.0036 | 0.055 | – | NC1=N[C@@]2(CO1)c1cc(-c3cccnc3F)ccc1Oc1nc(F)c(N3CCOCC3)cc12 [Example 714, (S)-2-fluoro-7-(2-fluoropyridin-3-yl)-3-morpholino-5′H-spiro[chromeno[2,3-b]pyridine-5,4′-oxazol]-2′-amine] | –
0.0449 | 0.634 | – | CC1(COc2cc(F)c3c(c2)[C@@]2(CSC(N)=N2)c2cc(-c4cncnc4)c(F)cc2O3)COC1 [Example 876, (4R)-3′,5′-difluoro-7′-((3-methyl-3-oxetanyl)methoxy)-2′-(5-pyrimidinyl)spiro[1,3-thiazole-4,9′-xanthen]-2-amine] | –
0.0024 | 0.0122 | – | CC1(C)C[C@H](c2cnc3c(c2)[C@]2(COC(N)=N2)c2cc(-c4cccnc4F)ccc2O3)CCO1 [Example 453, (5S)-3-((4R)-2,2-dimethyltetrahydro-2H-pyran-4-yl)-7-(2-fluoro-3-pyridinyl)spiro[chromeno[2,3-b]pyridine-5,4′-[1,3]oxazol]-2′-amine] | –
0.0005 | 0.011 | – | Cn1cc(-c2cc(F)c3c(c2)[C@]2(COC(N)=N2)c2cc(-c4c(F)ccnc4F)ccc2O3)cn1 [Example 859, (4S)-7′-(2,4-difluoro-3-pyridinyl)-4′-fluoro-2′-(1-methyl-1H-pyrazol-4-yl)spiro[1,3-oxazole-4,9′-xanthen]-2-amine] | –
0.0005 | – | 0.0059 | CC(C)(C#N)COc1cc(F)c2c(c1)[C@]1(COC(N)=N1)c1cc(-c3cncc(F)c3)ccc1O2 [Example 272, 3-(((4S)-2-amino-4′-fluoro-7′-(5-fluoro-3-pyridinyl)spiro[1,3-oxazole-4,9′-xanthen]-2′-yl)oxy)-2,2-dimethylpropanenitrile] | –
0.0025 | 0.0127 | – | COc1ccc(OC)c(-c2ccc3c(c2)[C@@]2(COC(N)=N2)c2cc(C4=CCOCC4)cnc2O3)c1 [Example 502, (5S)-3-(3,6-dihydro-2H-pyran-4-yl)-7-(2,5-dimethoxyphenyl)spiro[chromeno[2,3-b]pyridine-5,4′-[1,3]oxazol]-2′-amine] | –
0.0006 | 0.0022 | – | CC1(C#Cc2cnc3c(c2)[C@]2(COC(N)=N2)c2cc(-c4cc(Cl)cnc4F)ccc2O3)COC1 [Example 456, (5S)-7-(5-chloro-2-fluoro-3-pyridinyl)-3-((3-methyl-3-oxetanyl)ethynyl)spiro[chromeno[2,3-b]pyridine-5,4′-[1,3]oxazol]-2′-amine] | –
0.0004 | – | 0.0053 | NC1=N[C@@]2(CO1)c1cc(-c3cc(Cl)ccc3F)ccc1Oc1ncc(C3=CCCOC3)cc12 [Example 172, (5S)-7-(5-chloro-2-fluorophenyl)-3-(5,6-dihydro-2H-pyran-3-yl)spiro[chromeno[2,3-b]pyridine-5,4′-[1,3]oxazol]-2′-amine] | –
0.183 | 3 | – | CC1(COc2cc(F)c3c(c2)[C@@]2(CSC(N)=N2)c2cc(-c4cccnc4)c(F)cc2O3)COC1 [Example 877, (4R)-3′,5′-difluoro-7′-((3-methyl-3-oxetanyl)methoxy)-2′-(3-pyridinyl)spiro[1,3-thiazole-4,9′-xanthen]-2-amine] | –
0.0092 | – | 0.0462 | CC1(C#Cc2cc3c(cn2)Oc2ccc(-c4cncc(F)c4)cc2[C@@]32COC(N)=N2)COC1 [Example 153, (5S)-7-(5-fluoro-3-pyridinyl)-3-((3-methyl-3-oxetanyl)ethynyl)spiro[chromeno[2,3-c]pyridine-5,4′-[1,3]oxazol]-2′-amine] | –
0.0012 | 0.0151 | – | Cc1cnc(F)c(-c2ccc3c(c2)[C@@]2(COC(N)=N2)c2cc(N4CCC(F)(F)CC4)ncc2O3)c1 [Example 420, (5S)-3-(4,4-difluoro-1-piperidinyl)-7-(2-fluoro-5-methyl-3-pyridinyl)spiro[chromeno[2,3-c]pyridine-5,4′-[1,3]oxazol]-2′-amine] | –
0.162 | ≥ 10 | – | NC1=N[C@]2(CS1)c1cc(-c3cccnc3)c(F)cc1Oc1c(F)cc(C3=CCCOC3)cc12 [Example 884, (4R)-7′-(5,6-dihydro-2H-pyran-3-yl)-3′,5′-difluoro-2′-(3-pyridinyl)spiro[1,3-thiazole-4,9′-xanthen]-2-amine] | –
0.0003 | 0.008 | – | NC1=N[C@@]2(CO1)c1cc(-c3cncc(F)c3)ccc1Oc1c2cc(N2CC[C@H](F)C2)nc1F [Example 926, (5S)-1-fluoro-7-(5-fluoro-3-pyridinyl)-3-((3S)-3-fluoro-1-pyrrolidinyl)spiro[chromeno[2,3-c]pyridine-5,4′-[1,3]oxazol]-2′-amine] | –
0.0005 | 0.002 | – | CC#Cc1cnc(F)c(-c2ccc3c(c2)[C@@]2(COC(N)=N2)c2cc(C#CC4(C)COC4)cnc2O3)c1 [Example 955, (5S)-7-(2-fluoro-5-(1-propyn-1-yl)-3-pyridinyl)-3-((3-methyl-3-oxetanyl)ethynyl)spiro[chromeno[2,3-b]pyridine-5,4′-[1,3]oxazol]-2′-amine] | –
0.0019 | – | 0.024 | NC1=N[C@@]2(CO1)c1cc(-c3cccnc3)ccc1Oc1c2cc(C2=CCOCC2)c(F)c1F [Example 1007, (4S)-2′-(3,6-dihydro-2H-pyran-4-yl)-3′,4′-difluoro-7′-(3-pyridinyl)spiro[1,3-oxazole-4,9′-xanthen]-2-amine] | –
0.0164 | – | 0.0433 | NC1=N[C@]2(CO1)c1cc(N3CCOCC3)ccc1Oc1cc(F)c(-c3cncnc3)cc12 [Example 335, (4S)-3′-fluoro-7′-(4-morpholinyl)-2′-(5-pyrimidinyl)spiro[1,3-oxazole-4,9′-xanthen]-2-amine] | –
0.0005 | – | 0.01 | NC1=N[C@@]2(CS1)c1cc(-c3cccnc3)ccc1Oc1c(F)cc(C3=CCCOC3)cc12 [Example 795, (4S)-2′-(5,6-dihydro-2H-pyran-3-yl)-4′-fluoro-7′-(3-pyridinyl)spiro[1,3-thiazole-4,9′-xanthen]-2-amine] | –
0.0023 | – | 0.062 | NC1=N[C@@]2(CS1)c1cc(-c3cccnc3F)ccc1Oc1c(F)cc(-c3ccncc3)cc12 [Example 1068, (4S)-4′-fluoro-7′-(2-fluoro-3-pyridinyl)-2′-(4-pyridinyl)spiro[1,3-thiazole-4,9′-xanthen]-2-amine] | –
– | – | – | NC1=N[C@@]2(CO1)c1cc(-c3cccnc3F)ccc1Oc1cnc([C@@H]3CCCOC3)cc12 [Example 382, (5S)-7-(2-fluoro-3-pyridinyl)-3-((3S)-tetrahydro-2H-pyran-3-yl)spiro[chromeno[2,3-c]pyridine-5,4′-[1,3]oxazol]-2′-amine] | IC50 ([1]; BACE 1 FRET assay (uM)): 0.0113 µM; IC50 ([2]; Homo sapiens, HEK293, read-out: HEK cell assay (uM)): 0.123 µM
0.239 | 2.81 | – | CC(C)(C)C#Cc1cc2c(nc1F)Oc1ccc(-c3cccnc3F)cc1[C@]21COC(N)=N1 [Example 674, (5R)-3-(3,3-dimethyl-1-butyn-1-yl)-2-fluoro-7-(2-fluoro-3-pyridinyl)spiro[chromeno[2,3-b]pyridine-5,4′-[1,3]oxazol]-2′-amine] | –
0.0011 | 0.0262 | – | CC(C)(C)COc1cc2c(cn1)Oc1ccc(-c3cccnc3F)cc1C21COC(N)=N1 (centres unmarked) [Example 102, 7-(2-fluoropyridin-3-yl)-3-(neopentyloxy)-5′H-spiro[chromeno[2,3-c]pyridine-5,4′-oxazol]-2′-amine 2,2,2-trifluoroacetate] | –
0.0335 | – | 0.389 | COc1ncccc1-c1ccc2c(c1)[C@@]1(COC(N)=N1)c1cc(-c3ccnc(F)c3)ncc1O2 [Example 239, (5S)-3-(2-fluoro-4-pyridinyl)-7-(2-methoxy-3-pyridinyl)spiro[chromeno[2,3-c]pyridine-5,4′-[1,3]oxazol]-2′-amine] | –
0.0012 | – | 0.01 | Cc1ccc(-c2cnc3c(c2)[C@]2(CSC(N)=N2)c2cc(-c4cnccc4F)ccc2O3)cn1 [Example 766, (5S)-7-(4-fluoro-3-pyridinyl)-3-(6-methyl-3-pyridinyl)spiro[chromeno[2,3-b]pyridine-5,4′-[1,3]thiazol]-2′-amine] | –
